What was measured:
Assay in all cases: MYST KAT biomarker western blot, BT-549
Type in all cases: cell-based
[1] = test system: H2A.ZK4/K7Ac (KAT5); conditions: BT-549 cells, 24 h, 0.1-30 μM
Text: (§1) Figure 6. […] (C) Dependence of breast cancer cell lines on non-MYST KATs (EP300, CREBBP), MYST KATs (KAT6A, KAT6B, KAT7, KAT8, KAT5), and a MYST KAT complex member (BRPF1) derived from on DepMap CRISPR screening data. BT-549 is highlighted in orange. Lower CERES score indicates a greater dependence of the cell line on the specified gene. […] Data is representiative of n=2 biological replicates.
(§2) Analysis of DepMap-derived CRISPR screening data supports the notion that while breast cancer models vary widely in their requirement for EP300 and CREBBP, BT-549 appears to a fairly independent line. By comparison, targeting of KAT6 and KAT7 exerts modest effects on growth while KAT8 is highly inhibitory, consistent with its designation as an essential gene (Fig. 6C).[47], [48] […] KAT3 (H3K18Ac) and KAT5 (H2A.ZK4/K7Ac) were unaffected. […]
(§3) distinguish between tightly grouped and diffuse clusters, compactness was quantified by calculating the average pairwise Euclidean distance between all points within each cluster. Clusters with lower average […]
(§4) were visualized as two-dimensional scatter plots with points colored according to cluster assignments, […]
(§5) Binding structures between FOXK2 (Uniprot: Q01167) and candidate interactors identified from our chemoproteomic data were predicted using AlphaPulldown4 v0.30.7,4 with multiple sequence alignments generated via ColabFold Search v1.5.5 on the NIH HPC Biowulf Cluster. Five models were generated per protein-protein pair without using templates or paired MSAs. Local Interaction Scores (LIS) and Local Interaction Area (LIA) were calculated according to previously described formulas.5 Structural visualizations were generated using ChimeraX v1.8.
(§6) Composite scoring of candidate FOXK2-protein interactions
(§7) To prioritize potential interactions, we developed a composite scoring system integrating multiple AlphaFold metrics (mpDockQ/pDockQ, LIS, and LIA), building upon established approaches for protein-protein interaction analysis.6 Each interaction was evaluated against minimum acceptable thresholds (1610 for LIA, 0.073 for LIS, and 0.175 for mpDockQ/pDockQ) and assigned a weighted constant (k): 1.0 for passing all three thresholds, 0.75 for two, 0.5 for one, and zero for none. Metrics were then min-max normalized, summed, and multiplied by the weighted constant to generate final composite scores for ranking candidate interactions. All data, code, and analysis scripts can be accessed as described in Data […]
(§8) Prediction of interface contacts […]
(§9) P61964), were further analyzed to identify interface residue-residue contacts using both AlphaFold2 and AlphaFold3. For AlphaFold2 analysis7 we calculated Euclidean distances between alpha carbon coordinates of residues using Sci-Py's Distance Matrix Module, filtering for interactions under 8Å. […]

[2] = test system: H3K14Ac (KAT7); conditions: BT-549 cells, 24 h, near the GI50 dose
Text: as §1, §2, §3, §4, §5, §6, §7, §8, §9

[3] = test system: H3K18Ac (KAT3); conditions: BT-549 cells, 24 h, 0.1-30 μM
Text: as §1, §2, §3, §4, §5, §6, §7, §8, §9

[4] = test system: H3K23Ac (KAT6A/B); conditions: BT-549 cells, 24 h, near the GI50 dose
Text: as §1, §2, §3, §4, §5, §6, §7, §8, §9

## COc1cccc(OC)c1S(=O)(=O)Nc1noc2cc(Cn3cccn3)cc(OC)c12 [PF-9363]
[1]
  effect on KAT5 (H2A.ZK4/K7Ac): unaffected
[2]
  inhibition of KAT7 (H3K14Ac): near complete inhibiton
[3]
  effect on KAT3 (H3K18Ac): unaffected
[4]
  inhibition of KAT6A/B (H3K23Ac): near complete inhibiton

Source: publication doi:10.1101/2025.04.25.650653, “Hierarchical small molecule inhibition of MYST acetyltransferases” (bioRxiv, 2025)
